Remaining activity data for 29 molecules are collected here from patent publication US20110313156A1 (BOEHRINGER INGELHEIM INTERNATIONAL GMBH, priority 2008, published 2011).

The assay deals with T1, His6-PDK1 (aa 52-556) (Homo sapiens, UniProt O15530).
T1 construct: 15 μL His6-PDK1 (aa 52-556) 3.33 ng/well); host or cells: baculovirus-infected insect cells
T1 sequence (O15530 52-556): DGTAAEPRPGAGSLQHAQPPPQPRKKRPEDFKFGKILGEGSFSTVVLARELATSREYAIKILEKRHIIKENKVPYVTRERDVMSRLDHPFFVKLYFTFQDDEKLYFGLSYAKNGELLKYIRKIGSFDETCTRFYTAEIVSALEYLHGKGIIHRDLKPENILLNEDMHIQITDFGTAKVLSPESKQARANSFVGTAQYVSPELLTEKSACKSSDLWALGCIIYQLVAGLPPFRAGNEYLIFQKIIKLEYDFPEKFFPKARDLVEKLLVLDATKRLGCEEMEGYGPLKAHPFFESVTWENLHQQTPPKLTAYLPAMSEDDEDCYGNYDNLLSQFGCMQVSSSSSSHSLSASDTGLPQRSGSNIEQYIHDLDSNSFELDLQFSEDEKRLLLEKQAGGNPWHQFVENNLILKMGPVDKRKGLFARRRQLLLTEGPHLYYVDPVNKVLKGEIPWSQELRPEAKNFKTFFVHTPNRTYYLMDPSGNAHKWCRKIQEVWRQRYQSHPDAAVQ
Put plainly: PDK1 kinase assay III (with Tween 20). Type of assay: biochemical. Conditions: compound at 10 μM; PDK1 kinase assay III (values without asterisk); read-out: % CTL (residual activity of the enzyme relative to DMSO control). As for the experimental part:
Purified enzyme may be obtained for example from the University of Dundee, Scotland.
Another PDK1 assay was developed which by comparison with PDK1 assay 1 additionally contains Tween 20:
The final concentration of Tween 20 is 0.005%.
The reaction is started by adding the ATP solution and the mixture is incubated for 90 min at ambient temperature; at the start of the reaction the dishes are shaken gently. The reaction is stopped by the addition of 50 μL/well of 500 mM phosphoric acid (H3PO4) and incubated for about 20 min at ambient temperature. […] The measured data are evaluated using Graphpad Prism software.
The % CTL values indicate the residual activity of the enzyme after the addition of the inhibitory compound in the solvent DMSO in relation to the enzyme activity in the solvent DMSO without the addition of a compound (control). The majority of the values were determined using the PDK1 kinase assay III described hereinbefore. The values marked with an asterisk (* or**) were determined using the PDK1 kinase assay II described hereinbefore (one asterisk→incubation for 24 h; two asterisks→incubation for 5 min)
With `CN(C)Cc1ccc(Nc2ncc3cc(/C=C(\F)CNC(=O)c4cncn(Cc5ccc(F)c(F)c5)c4=O)ccc3n2)cc1` [IV-30, 1-(3,4-difluorobenzyl)-N-{(2Z)-3-[2-({4-[(dimethylamino)methyl]phenyl}amino)-quinazolin-6-yl]-2-fluoroprop-2-en-1-yl}-6-oxo-1,6-dihydropyrimidine-5-carboxamide], the remaining activity at 10 µM turned out to be 13.7%.
Regarding `O=C(NC/C=C/c1cc(OC2CCNCC2)c2nc(Nc3ccccc3)ncc2c1)c1cncn(Cc2ccc(F)c(F)c2)c1=O` [III-19, 1-(3,4-difluorobenzyl)-6-oxo-N-{(2E)-3-[2-(phenylamino)-8-(piperidin-4-yloxy)quinazolin-6-yl]prop-2-en-1-yl}-1,6-dihydropyrimidine-5-carboxamide], the remaining activity at 10 µM was 17.5%.
As to `Cc1c(C(=O)NC/C=C/c2cc(OCCN)c3nc(Nc4ccccc4)ncc3c2)c(=O)n(Cc2ccc(F)c(F)c2)n1C`, the remaining activity at 10 µM is 19.5%.
Consider `Cc1c(C(=O)NC/C=C/c2ccc3nc(Nc4ccc(C(=O)NCCCN(C)C)cc4)ncc3c2)c(=O)n(Cc2ccc(F)c(F)c2)n1C`, for which the remaining activity at 10 µM was 16.9%.
In the case of `Cc1c[nH]c(/C=C2\C(=O)Nc3cc(/C=C/CNC(=O)c4cncn(Cc5ccc(F)c(F)c5)c4=O)cc(F)c32)n1` [I-48, 1-(3,4-difluorobenzyl)-N-[(2E)-3-{(3Z)-4-fluoro-3-[(4-methyl-1H-imidazol-2-yl)methylidene]-2-oxo-2,3-dihydro-1H-indol-6-yl}prop-2-en-1-yl]-6-oxo-1,6-dihydropyrimidine-5-carboxamide], the remaining activity at 10 µM stood at 23.1%.
As to `CNc1ncc2cc(C#CCNC(=O)c3cncn(Cc4ccc(F)c(F)c4)c3=O)ccc2n1` [III-43, 1-(3,4-difluorobenzyl)-N-{3-[2-(methylamino)quinazolin-6-yl]prop-2-yn-1-yl}-6-oxo-1,6-dihydropyrimidine-5-carboxamide], the remaining activity at 10 µM amounted to 20.3%.
For `Cc1c(C(=O)NCC#Cc2cc(OC3CCNC3)c3nc(Nc4ccc(N5CCOCC5)cc4)ncc3c2)c(=O)n(Cc2ccc(F)c(F)c2)n1C` (centres unmarked) [III-76], the remaining activity at 10 µM amounted to 11.8%.
The figure for `Cc1c(/C=C/CNC(=O)c2cncn(Cc3ccc(F)c(F)c3)c2=O)c(=O)n(C(C)C)c2nc(Nc3ccc(N4CCOCC4)cc3)ncc12` [IV-38, 1-(3,4-difluorobenzyl)-N-{(2E)-3-[5-methyl-2-{[4-(morpholin-4-yl)phenyl]amino}-7-oxo-8-(propane-2-yl)-7,8-dihydropyrido[2,3-d]pyrimidin-6-yl]prop-2-en-1-yl}-6-oxo-1,6-dihydropyrimidine-5-carboxamide] is 11.8%; for `CN1CCC(Nc2ccc(Nc3ncc4cc(C#CCNC(=O)c5cc(Cl)nn(Cc6ccc(F)c(F)c6)c5=O)ccc4n3)cc2F)CC1` [III-38, 6-chloro-2(3,4-difluorobenzyl)-N-{3-[2-({3-fluoro-4-[(1-methylpiperidin-4-yl)-amino]phenyl}amino)quinazolin-6-yl]prop-2-yn-1-yl}-3-oxo-2,3-dihydropyridazine-4-carboxamide] it is 13.2%; for `Cc1c(C(=O)NCC#Cc2ccc3nc(Nc4ccc(C(=O)N(C)CCCO)cc4)ncc3c2)c(=O)n(Cc2ccc(F)c(F)c2)n1C` it is 23.2%.
With `Cc1c(C(=O)NCC#Cc2cc(OC3CCNCC3)c3nc(Nc4ccc(N5CCOCC5)cc4)ncc3c2)c(=O)n(Cc2ccc(F)c(F)c2)n1C`, the remaining activity at 10 µM stood at 12.3%.
Regarding `CNC(=O)c1ccc(Nc2ncc3cc(/C=C/CNC(=O)c4cncn(Cc5ccc(F)c(F)c5)c4=O)ccc3n2)cc1Cl`, the remaining activity at 10 µM turned out to be 14.1%.
As for `Cc1c(C(=O)NCC#Cc2ccc3c(-c4ccc[nH]4)n[nH]c3c2)c(=O)n(Cc2ccc(F)c(F)c2)n1C` [II-1, 2-(3,4-difluorobenzyl)-1,5-dimethyl-3-oxo-N-{3-[3-(1H-pyrrol-2-yl)-1H-indazol-6-yl]prop-2-yn-1-yl}-2,3-dihydro-1H-pyrazole-4-carboxamide], the remaining activity at 10 µM amounted to 13%.
Turning to `O=C(NCC#Cc1cc(OC2CCNCC2)c2nc(Nc3ccc(N4CCOCC4)cc3)ncc2c1)c1cncn(Cc2ccc(F)c(F)c2)c1=O`, the remaining activity at 10 µM stood at 9.4%.
As for `Cc1c(C(=O)NC/C=C\c2ccc3c(-c4ccco4)n[nH]c3c2)c(=O)n(Cc2ccc(F)c(F)c2)n1C` [II-6, 2-(3,4-difluorobenzyl)-N-{(2Z)-3-[3-(furan-2-yl)-1H-indazol-6-yl]prop-2-en-1-yl}-1,5-dimethyl-3-oxo-2,3-dihydro-1H-pyrazole-4-carboxamide], the remaining activity at 10 µM worked out at 21.4%.
`Cc1c(C#CCNC(=O)c2c(C)n(C)n(Cc3ccc(F)c(F)c3)c2=O)ccc2nc(Nc3ccccc3)ncc12`: the remaining activity at 10 µM is 12.4%.
`O=C1Nc2cc(/C=C/CNC(=O)C3CCCN(Cc4ccc(F)c(F)c4)C3=O)ccc2/C1=C/c1ccc[nH]1` (centres unmarked) [I-10, 1-(3,4-difluorobenzyl)-2-oxo-N-{(2E)-3-[(3Z)-2-oxo-3-(1H-pyrrol-2-ylmethylidene)-2,3-dihydro-1H-indol-6-yl]prop-2-en-1-yl}piperidine-3-carboxamide]: the remaining activity at 10 µM was 36.1%.
Consider `Cc1c(C(=O)NC/C=C/c2ccc3c(c2)NC(=O)/C3=C\c2ccc[nH]2)c(=O)n(Cc2ccc(F)c(F)c2)n1C` [I-16, 2-(3,4-difluorobenzyl)-1,5-dimethyl-3-oxo-N-{(2E)-3-[(3Z)-2-oxo-3-(1H-pyrrol-2-ylmethylidene)-2,3-dihydro-1H-indol-6-yl]prop-2-en-1-yl}-2,3-dihydro-1H-pyrazole-4-carboxamide], for which the remaining activity at 10 µM came out at 15.4%.
The same measure for `O=C1Nc2cc(C#CCNC(=O)c3cncn(Cc4ccc(F)c(F)c4)c3=O)ccc2/C1=C/c1cnc[nH]1` [I-44, 1-(3,4-difluorobenzyl)-N-{3-[(3Z)-3-(1H-imidazol-5-ylmethylidene)-2-oxo-2,3-dihydro-1H-indol-6-yl]prop-2-yn-1-yl}-6-oxo-1,6-dihydropyrimidine-5-carboxamide]: 15.6%.
As for `CCN1CCC(NC(=O)c2ccc(Nc3ncc4cc(C#CCNC(=O)c5c(C)n(C)n(Cc6ccc(F)c(F)c6)c5=O)ccc4n3)cc2)CC1`, the remaining activity at 10 µM is 13.7%.
For `Nc1ncc2cc(/C=C/CNC(=O)c3cncn(Cc4ccc(F)c(F)c4)c3=O)ccc2n1` [IV-48, N-[(2E)-3-(2-aminoquinazolin-6-yl)prop-2-en-1-yl]-1-(3,4-difluorobenzyl)-6-oxo-1,6-dihydropyrimidine-5-carboxamide], the remaining activity at 10 µM is 24.4%.
As to `O=C(NCc1ccc(-c2cnc3[nH]ccc3c2)s1)c1cncn(Cc2ccc(F)c(F)c2)c1=O` [IV-41, 1-(3,4-difluorobenzyl)-6-oxo-N-{[5-(1H-pyrrolo[2,3-b]pyridin-5-yl)thiophen-2-yl]methyl}-1,6-dihydropyrimidine-5-carboxamide], the remaining activity at 10 µM stood at 24.4%.
In the case of `COC(=O)c1ccc(Nc2ncc3cc(/C=C/CNC(=O)c4c(C)n(C)n(Cc5ccc(F)c(F)c5)c4=O)ccc3n2)cc1OC`, the remaining activity at 10 µM amounted to 13.6%.
`CN(C)Cc1ccc(Nc2ncc3cc(C#CCNC(=O)c4nccn(Cc5ccc(F)c(F)c5)c4=O)ccc3n2)cc1` [III-17, 4-(3,4-difluorobenzyl)-N-{3-[2-({4-[(dimethylamino)methyl]phenyl}amino)quinazolin-6-yl]prop-2-yn-1-yl}-3-oxo-3,4-dihydropyrazine-2-carboxamide]: the remaining activity at 10 µM came out at 13.7%.
As to `COC(=O)c1ccc(Nc2ncc3cc(/C=C/CNC(=O)c4cncn(Cc5ccc(F)c(F)c5)c4=O)ccc3n2)cc1OC`, the remaining activity at 10 µM came to 38.2%.
As to `O=C(NC/C=C/c1ccc2nc(Nc3ccccc3)ncc2c1)c1cncn(Cc2ccc(F)c(F)c2)c1=O` [IV-62], the remaining activity at 10 µM worked out at 19.1%.
On to `Cc1c(C(=O)NCC#Cc2ccc3nc(Nc4ccc(C(=O)O)cc4)ncc3c2)c(=O)n(Cc2ccc(F)c(F)c2)n1C` [III-47], for which the remaining activity at 10 µM stood at 13.3%.
Turning to `CN(C)Cc1ccc(Nc2ncc3c(F)c(/C=C/CNC(=O)c4cncn(Cc5ccc(F)c(F)c5)c4=O)ccc3n2)cc1` [IV-33, 1-(3,4-difluorobenzyl)-N-{(2E)-3-[2-({4-[(dimethylamino)methyl]phenyl}amino)-5-fluoroquinazolin-6-yl]prop-2-en-1-yl}-6-oxo-1,6-dihydropyrimidine-5-carboxamide], the remaining activity at 10 µM is 14.9%.
The figure for `CN1CCC(N(C)c2ccc(Nc3ncc4cc(C#CCNC(=O)c5cncn(Cc6ccc(F)c(F)c6)c5=O)ccc4n3)cc2)CC1` [III-30, 1-(3,4-difluorobenzyl)-N-{3-[2-({4-[methyl(1-methylpiperidin-4-yl)amino]phenyl}amino)quinazolin-6-yl]prop-2-yn-1-yl}-6-oxo-1,6-dihydropyrimidine-5-carboxamide] is 11.4%.
